Assays:
Assay in all cases: SRB assay, IMT combined with inhibitor
Type in all cases: cell-based
A2780 = A2780 (ovary); concentration series of the labelled inhibitor + fixed concentration of IMT (3S)-1-[(2R)-2-[4-(2-chloro-4-fluoro-phenyl)-2-oxo-chromen-7-yl]oxypropanoyl]piperidine-3-carboxylic acid (Table 3: 40 nM, 120 h); negative=synergistic, positive=antagonistic
Protocol: In two studies, the ovarian cell line A2780 was tested for 72 hours with the IMT N,N-dimethyl-2-[4-(o-tolyl)-2-oxo-chromen-7-yl]oxy-propanamide (30 μM-15 nM) and the MEK inhibitor Selumetinib (30 μM-10 nM), or with the IMT 1-[2-[4-(2-chlorophenyl)-2-oxo-chromen-7-yl]oxypropanoyl]piperidine-3-sulfonamide (30 μM-15 nM) and the MEK inhibitor PD318088 (30 μM-10 nM).
(§1) Solforhodamine B assay is carried out as described in Voigt W. (2005) Sulforhodamine B Assay and Chemosensitivity. (Methods in Molecular Medicine™, vol 110. Humana Press. https://doi.org/10.1385/1-59259-869-2:039).
(§2) The determination of changes in cellular biomass was based on the Solforhodamine B assay format, carried out as described in Voigt W. (2005) Sulforhodamine B Assay and Chemosensitivity. (Methods in Molecular Medicine™, vol 110. Humana Press. https://doi.org/10.1385/1-59259-869-2:039).
(§3) All in vitro cell culture experiments were carried out under near physiological glucose concentrations (5 mM) in at least two independent replicates.
(§4) First, 30 different cell lines from 14 different tissue types were tested in the SRB assay format. The cells were examined individually for changes in growth over a period of 120 hours with dilution series of both inhibitors. Untreated cells were used as a negative control group. Subsequently, a dilution series of the respective MAPK signalling pathway SOCs was treated in combination with a fixed concentration of 40 nM (3S)-1-[(2R)-2-[4-(2-chloro-4-fluoro-phenyl)-2-oxo-chromen-7-yl]oxypropanoyl]piperidine-3-carboxylic acid.

KASUMI-1 = KASUMI-1 (hematological); concentration series of the labelled inhibitor + fixed concentration of IMT (3S)-1-[(2R)-2-[4-(2-chloro-4-fluoro-phenyl)-2-oxo-chromen-7-yl]oxypropanoyl]piperidine-3-carboxylic acid (Table 3: 40 nM, 120 h); negative=synergistic, positive=antagonistic
Protocol: as §1, §2, §3, §4

U87MG = U87MG (brain); concentration series of the labelled inhibitor + fixed concentration of IMT (3S)-1-[(2R)-2-[4-(2-chloro-4-fluoro-phenyl)-2-oxo-chromen-7-yl]oxypropanoyl]piperidine-3-carboxylic acid (Table 3: 40 nM, 120 h); negative=synergistic, positive=antagonistic
Protocol: as §1, §2, §3, §4

HELA = HELA (cervix); concentration series of the labelled inhibitor + fixed concentration of IMT (3S)-1-[(2R)-2-[4-(2-chloro-4-fluoro-phenyl)-2-oxo-chromen-7-yl]oxypropanoyl]piperidine-3-carboxylic acid (Table 3: 40 nM, 120 h); negative=synergistic, positive=antagonistic
Protocol: as §1, §2, §3, §4

HCT116 = HCT116 (colon); concentration series of the labelled inhibitor + fixed concentration of IMT (3S)-1-[(2R)-2-[4-(2-chloro-4-fluoro-phenyl)-2-oxo-chromen-7-yl]oxypropanoyl]piperidine-3-carboxylic acid (Table 3: 40 nM, 120 h); negative=synergistic, positive=antagonistic
Protocol: as §1, §2, §3, §4

DU145 = DU145 (prostate); concentration series of the labelled inhibitor + fixed concentration of IMT (3S)-1-[(2R)-2-[4-(2-chloro-4-fluoro-phenyl)-2-oxo-chromen-7-yl]oxypropanoyl]piperidine-3-carboxylic acid (Table 3: 40 nM, 120 h); negative=synergistic, positive=antagonistic
Protocol: as §1, §2, §3, §4

PANC1 = PANC1 (pancreas); concentration series of the labelled inhibitor + fixed concentration of IMT (3S)-1-[(2R)-2-[4-(2-chloro-4-fluoro-phenyl)-2-oxo-chromen-7-yl]oxypropanoyl]piperidine-3-carboxylic acid (Table 3: 40 nM, 120 h); negative=synergistic, positive=antagonistic
Protocol: as §1, §2, §3, §4

MV4-11 = MV4-11 (hematological); concentration series of the labelled inhibitor + fixed concentration of IMT (3S)-1-[(2R)-2-[4-(2-chloro-4-fluoro-phenyl)-2-oxo-chromen-7-yl]oxypropanoyl]piperidine-3-carboxylic acid (Table 3: 40 nM, 120 h); negative=synergistic, positive=antagonistic
Protocol: as §1, §2, §3, §4

U2OS = U2OS (bone); concentration series of the labelled inhibitor + fixed concentration of IMT (3S)-1-[(2R)-2-[4-(2-chloro-4-fluoro-phenyl)-2-oxo-chromen-7-yl]oxypropanoyl]piperidine-3-carboxylic acid (Table 3: 40 nM, 120 h); negative=synergistic, positive=antagonistic
Protocol: as §1, §2, §3, §4

A549 = A549 (lung); concentration series of the labelled inhibitor + fixed concentration of IMT (3S)-1-[(2R)-2-[4-(2-chloro-4-fluoro-phenyl)-2-oxo-chromen-7-yl]oxypropanoyl]piperidine-3-carboxylic acid (Table 3: 40 nM, 120 h); negative=synergistic, positive=antagonistic
Protocol: as §1, §2, §3, §4

BXPC3 = BXPC3 (pancreas); concentration series of the labelled inhibitor + fixed concentration of IMT (3S)-1-[(2R)-2-[4-(2-chloro-4-fluoro-phenyl)-2-oxo-chromen-7-yl]oxypropanoyl]piperidine-3-carboxylic acid (Table 3: 40 nM, 120 h); negative=synergistic, positive=antagonistic
Protocol: as §1, §2, §3, §4

LOVO = LOVO (colon); concentration series of the labelled inhibitor + fixed concentration of IMT (3S)-1-[(2R)-2-[4-(2-chloro-4-fluoro-phenyl)-2-oxo-chromen-7-yl]oxypropanoyl]piperidine-3-carboxylic acid (Table 3: 40 nM, 120 h); negative=synergistic, positive=antagonistic
Protocol: as §1, §2, §3, §4

SW620 = SW620 (colon); concentration series of the labelled inhibitor + fixed concentration of IMT (3S)-1-[(2R)-2-[4-(2-chloro-4-fluoro-phenyl)-2-oxo-chromen-7-yl]oxypropanoyl]piperidine-3-carboxylic acid (Table 3: 40 nM, 120 h); negative=synergistic, positive=antagonistic
Protocol: as §1, §2, §3, §4

A375 = A375 (skin); concentration series of the labelled inhibitor + fixed concentration of IMT (3S)-1-[(2R)-2-[4-(2-chloro-4-fluoro-phenyl)-2-oxo-chromen-7-yl]oxypropanoyl]piperidine-3-carboxylic acid (Table 3: 40 nM, 120 h); negative=synergistic, positive=antagonistic
Protocol: as §1, §2, §3, §4

SMILES | difference between the calculated combinatorial index (BLISS) and the observed combinatorial effect (A2780) | difference between the calculated combinatorial index (BLISS) and the observed combinatorial effect (KASUMI-1) | difference between the calculated combinatorial index (BLISS) and the observed combinatorial effect (U87MG) | difference between the calculated combinatorial index (BLISS) and the observed combinatorial effect (HELA) | difference between the calculated combinatorial index (BLISS) and the observed combinatorial effect (HCT116) | difference between the calculated combinatorial index (BLISS) and the observed combinatorial effect (DU145) | difference between the calculated combinatorial index (BLISS) and the observed combinatorial effect (PANC1) | difference between the calculated combinatorial index (BLISS) and the observed combinatorial effect (MV4-11) | difference between the calculated combinatorial index (BLISS) and the observed combinatorial effect (U2OS) | difference between the calculated combinatorial index (BLISS) and the observed combinatorial effect (A549) | difference between the calculated combinatorial index (BLISS) and the observed combinatorial effect (BXPC3) | difference between the calculated combinatorial index (BLISS) and the observed combinatorial effect (LOVO) | difference between the calculated combinatorial index (BLISS) and the observed combinatorial effect (SW620) | difference between the calculated combinatorial index (BLISS) and the observed combinatorial effect (A375)
Cc1cc(C(=O)NOCCO)c(Nc2ccc(I)cc2F)n(C)c1=O [AZD8330, 2-((2-Fluoro-4-iodophenyl)amino)-N-(2-hydroxyethoxy)-1,5-dimethyl-6-oxo-1,6-dihydropyridine-3-carboxamide] | 0.0118 | −0.0326 | 0.0579 | 0.0000 | −0.0196 | 0.0201 | 0.0157 | 0.0680 | −0.0171 | −0.0341 | 0.0756 | 0.0047 | −0.0037 | 0.0451
COc1c(OCCCN2CCOCC2)ccc2c1N=C(NC(=O)c1cnc(N)nc1)N1CCN=C21 [BAY 80-6946, 2-Amino-N-{7-methoxy-8-[3-(4-morpholinyl)propoxy]-2,3-dihydroimidazo[1,2-c]quinazolin-5-yl}-5-pyrimidinecarboxamide] | 0.0466 | 0.0015 | 0.0243 | −0.0260 | −0.0195 | 0.0423 | 0.0174 | 0.0337 | 0.0017 | 0.0159 | −0.0082 | −0.0178 | −0.0651 | −0.0033
O=C(c1ccc(F)c(F)c1Nc1ccc(I)cc1F)N1CC(O)([C@@H]2CCCCN2)C1 [Cobimetinib] | −0.0105 | −0.0232 | 0.0347 | −0.0068 | −0.0279 | 0.0164 | 0.0747 | 0.0051 | −0.0663 | −0.0490 | 0.0204 | −0.0754 | −0.0609 | 0.0443
CC(C)(C)c1nc(-c2cccc(NS(=O)(=O)c3c(F)cccc3F)c2F)c(-c2ccnc(N)n2)s1 [Dabrafenib] | 0.0281 | −0.0274 | 0.0044 | −0.0022 | 0.0411 | −0.0114 | 0.0029 | 0.0205 | −0.0418 | −0.0892 | 0.0251 | −0.0384 | −0.0699 | 0.0337

Source: patent publication US20240252454A1, “COMPOSITION COMPRISING AN INHIBITOR OF MITOCHONDRIAL TRANSCRIPTION” (LEAD DISCOVERY CENTER GMBH, priority 2021, published 2024)
